{"source": "paper PMC10875103", "about": "“Selective synthesis of rebaudioside M2 through structure-guided engineering of glycosyltransferase UGT94D1” (Frontiers in Bioengineering and Biotechnology, 2024)", "target": "T1, UGT94D1 (Sesamum indicum, UniProt A0A6I9T8N3, F119I/D188P)", "T1 construct": "gene LOC105161042; full ORF, synthetic codon-optimised gene; Ni-NTA purified and desalted", "T1 sequence (A0A6I9T8N3 entry or part of it F119I/D188P)": "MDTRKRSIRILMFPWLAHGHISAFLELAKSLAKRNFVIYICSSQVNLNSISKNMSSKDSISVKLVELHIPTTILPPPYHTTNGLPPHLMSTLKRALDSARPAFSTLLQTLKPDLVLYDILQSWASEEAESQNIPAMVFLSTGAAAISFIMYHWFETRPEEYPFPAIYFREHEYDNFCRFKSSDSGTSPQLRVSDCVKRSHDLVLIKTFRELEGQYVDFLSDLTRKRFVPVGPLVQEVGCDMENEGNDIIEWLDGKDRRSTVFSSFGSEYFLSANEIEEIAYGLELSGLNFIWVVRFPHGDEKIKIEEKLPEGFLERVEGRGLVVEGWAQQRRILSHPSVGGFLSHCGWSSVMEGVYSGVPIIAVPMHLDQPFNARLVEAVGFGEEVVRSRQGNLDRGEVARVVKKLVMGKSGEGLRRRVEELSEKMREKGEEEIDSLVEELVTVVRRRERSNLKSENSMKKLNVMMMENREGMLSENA", "test": "UPLC glucosylation assay, […] h turnover", "assay_type": "biochemical", "details": "0.5 mM Reb D, 5 mM UDPG, 10 mM MnCl2, 50 mM Tris-HCl pH 8.0, 35 °C"}
{"smiles": "C=C1C[C@@]23CC[C@H]4[C@@](C)(CCC[C@@]4(C)C(=O)O[C@@H]4O[C@H](CO)[C@@H](O)[C@H](O)[C@H]4O[C@@H]4O[C@H](CO)[C@@H](O)[C@H](O)[C@H]4O)[C@@H]2CC[C@]1(O[C@@H]1O[C@H](CO)[C@@H](O)[C@H](O[C@@H]2O[C@H](CO)[C@@H](O)[C@H](O)[C@H]2O)[C@H]1O[C@@H]1O[C@H](CO)[C@@H](O)[C@H](O)[C@H]1O)C3", "note": "[rebaudioside D]", "values": [{"measurement": "relative activity", "value": "catalytic activities of mutants F119I/D188P and F119P/D188P were further improved"}]}
